Data published in US20240148821A1, “PHARMACEUTICAL USE OF CYCLIC PEPTIDE COMPOUND” (CHUGAI SEIYAKU KABUSHIKI KAISHA, priority 2021, published 2024).
Bridge positions count the residues as written; N and C are the ends. Square brackets hold non-standard residues; d marks the D form. Peptide text beside a SMILES is read from it. * marks the point of attachment. hPhe(3-Cl-4-CF3) = N[C@@H](CCc1ccc(C(F)(F)F)c(Cl)c1)C(=O)O; hPhe(3-F,4-CF3) = N[C@@H](CCc1ccc(C(F)(F)F)c(F)c1)C(=O)O; NMePhe(2-CN) = CN[C@@H](Cc1ccccc1C#N)C(=O)O; NMePhe(4-Me) = CN[C@@H](Cc1ccc(C)cc1)C(=O)O; NMeNle(6-CHF2) = CN[C@@H](CCCCC(F)F)C(=O)O; NMeGly(cPent) = CN[C@H](C(=O)O)C1CCCC1; NMeCha = CN[C@@H](CC1CCCCC1)C(=O)O; NMeGly(cPr) = CN[C@H](C(=O)O)C1CC1; NMeCba = CN[C@@H](CC1CCC1)C(=O)O; NMeD = CN[C@@H](CC(=O)O)C(=O)O; NMeL = CN[C@@H](CC(C)C)C(=O)O; NMeV = CN[C@H](C(=O)O)C(C)C; d(β3hA) = C[C@@H](N)CC(=O)O; dNMeS = CN[C@H](CO)C(=O)O; NMeA = CN[C@@H](C)C(=O)O; Piperidide = C1CCN(*)CC1; Pyrrolidide = C1CCN(*)C1; dNMeA = CN[C@H](C)C(=O)O; Ac5c = NC1(C(=O)O)CCCC1; Aze = O=C(O)[C@@H]1CCN1; Aib = CC(C)(N)C(=O)O; Isopentyl = CC(C)CC*; Sar = CNCC(=O)O

Test system: Human pancreatic cancer cell line AsPC-1 (G12D mutation Kras)
Experiment: AsPC-1 cell growth inhibition (AsPC-1 CGI)
Assay type: cell-based
Conditions: read-out: AsPC-1 cell growth inhibition, 50% growth inhibitory concentration (IC50 value); 96 hours, CellTiter-Glo, values classified in ranges
Experimental: Test compounds were serially dilated with dimethyl sulfoxide, and 200 nL was then dispensed to a U-bottom 96-well plate using Labcyte Echo. […] The cell suspension was dispensed to a. plate containing a test compound at 100 μL per well and incubated at 37° C. in a 5% carbon dioxide gas incubator. 96 hours later, 80 μL of CellTiter-Glo (Promega) was added to each well and fluorescence was measured.

| Structure (SMILES) | IC50 [nM] |
| --- | --- |
| CC[C@H](C)[C@@H]1NC(=O)[C@H](CC(C)C)N(C)C(=O)C[C@@H](C)NC(=O)[C@H](C(C)C)N(C)C(=O)C2(CCCC2)NC(=O)[C@@H]2CCCN2C(=O)[C@H](CCc2ccc(C(F)(F)F)c(Cl)c2)NC(=O)CN(C)C(=O)[C@H](CC2CCC2)N(C)C(=O)CN(C)C(=O)CN(C)C1=O [Compound 75] (cyclo([Ac5c][NMeV][d(β3hA)][NMeL]I[Sar][Sar][NMeCba][Sar][hPhe(3-Cl-4-CF3)]P)) | > 500 |
| CC[C@H](C)[C@@H]1NC(=O)[C@H](CC(C)C)N(C)C(=O)C[C@@H](C(=O)N2CCCC2)NC(=O)[C@H](CC(C)C)N(C)C(=O)C2(CCCC2)NC(=O)[C@@H]2CCCN2C(=O)[C@H](CCc2ccc(C(F)(F)F)c(F)c2)NC(=O)CN(C)C(=O)[C@H](CC2CCCCC2)N(C)C(=O)CN(C)C(=O)CN(C)C1=O [Compound 1489] ([NMeL]I[Sar][Sar][NMeCha][Sar][hPhe(3-F,4-CF3)]P[Ac5c][NMeL]D-Pyrrolidide; lactam N-11) | > 500 |
| CC[C@H](C)[C@@H]1NC(=O)[C@H](C)N(C)C(=O)C[C@@H](C)NC(=O)[C@H](C(C)C)N(C)C(=O)C2(CCCC2)NC(=O)[C@@H]2CCCN2C(=O)[C@H](CCc2ccc(C(F)(F)F)c(Cl)c2)NC(=O)CN(C)C(=O)[C@H](CC2CCCCC2)N(C)C(=O)CN(C)C(=O)CN(C)C1=O [Compound 697] (cyclo([Ac5c][NMeV][d(β3hA)][NMeA]I[Sar][Sar][NMeCha][Sar][hPhe(3-Cl-4-CF3)]P)) | > 500 |
| CC[C@H](C)[C@@H]1NC(=O)[C@H](CC(C)C)N(C)C(=O)C[C@@H](C(=O)N2CCCCC2)N(C)C(=O)[C@H](C2CCCC2)N(C)C(=O)C2(CCCC2)NC(=O)[C@@H](COCCC(C)C)N(C)C(=O)[C@H](CCc2ccc(C(F)(F)F)c(Cl)c2)NC(=O)CN(C)C(=O)[C@H](CC2CCCCC2)N(C)C(=O)CN(C)C(=O)CN(C)C1=O [Compound 1440] ([NMeL]I[Sar][Sar][NMeCha][Sar][hPhe(3-Cl-4-CF3)][dNMeS](Isopentyl)[Ac5c][NMeGly(cPent)][NMeD]-Piperidide; lactam N-11) | > 500 |
| CC[C@H](C)[C@@H]1NC(=O)[C@H](CC(C)C)N(C)C(=O)C[C@@H](C(=O)N2CCCC2)NC(=O)[C@H](CC(C)C)N(C)C(=O)C(C)(C)NC(=O)[C@H](CC(C)C)N(C)C(=O)[C@H](CCc2ccc(C(F)(F)F)c(F)c2)NC(=O)CN(C)C(=O)[C@H](CCCCC(F)F)N(C)C(=O)CN(C)C(=O)CN(C)C1=O [Compound 1455] ([NMeL]I[Sar][Sar][NMeNle(6-CHF2)][Sar][hPhe(3-F,4-CF3)][NMeL][Aib][NMeL]D-Pyrrolidide; lactam N-11) | > 500 |
| CC[C@H](C)[C@@H]1NC(=O)[C@H](CC(C)C)N(C)C(=O)C[C@@H](C(=O)N(C)C)N(C)C(=O)[C@H](C2CCCC2)N(C)C(=O)[C@H](C(C)C)NC(=O)[C@@H](C)NC(=O)[C@H](CCc2ccc(C(F)(F)F)c(Cl)c2)NC(=O)CN(C)C(=O)[C@H](CC2CCCCC2)N(C)C(=O)[C@@H]2CCN2C(=O)[C@H](C)N(C)C1=O [Compound 24] ([NMeL]I[NMeA][Aze][NMeCha][Sar][hPhe(3-Cl-4-CF3)][dA]V[NMeGly(cPent)][NMeD]-NMe2; lactam N-11) | > 500 |
| CC[C@H](C)[C@@H]1NC(=O)[C@H](C)N(C)C(=O)C[C@@H](C)NC(=O)[C@H](C2CCCC2)N(C)C(=O)C2(CCCC2)NC(=O)[C@@H]2CCCN2C(=O)[C@H](CCc2ccc(C(F)(F)F)c(Cl)c2)NC(=O)[C@@H](C)N(C)C(=O)[C@H](Cc2ccc(C)cc2)N(C)C(=O)CN(C)C(=O)CN(C)C1=O [Compound 1465] (cyclo([Ac5c][NMeGly(cPent)][d(β3hA)][NMeA]I[Sar][Sar][NMePhe(4-Me)][dNMeA][hPhe(3-Cl-4-CF3)]P)) | > 500 |
| CC[C@H](C)[C@@H]1NC(=O)[C@H](C2CC2)N(C)C(=O)C[C@@H](C)NC(=O)[C@H](C(C)C)N(C)C(=O)C2(CCCC2)NC(=O)[C@@H]2CCCN2C(=O)[C@H](CCc2ccc(C(F)(F)F)c(Cl)c2)NC(=O)CN(C)C(=O)[C@H](CC2CCCCC2)N(C)C(=O)CN(C)C(=O)CN(C)C1=O [Compound 844] (cyclo([Ac5c][NMeV][d(β3hA)][NMeGly(cPr)]I[Sar][Sar][NMeCha][Sar][hPhe(3-Cl-4-CF3)]P)) | > 500 |
| CC[C@H](C)[C@@H]1NC(=O)[C@H](CC(C)C)N(C)C(=O)C[C@@H](C(=O)N2CCCCC2)N(C)C(=O)[C@H](C(C)C)NC(=O)C2(CCCC2)NC(=O)[C@@H]2CCCN2C(=O)[C@H](CCc2ccc(C(F)(F)F)c(Cl)c2)NC(=O)CN(C)C(=O)[C@H](CC2CCCCC2)N(C)C(=O)[C@@H]2CCN2C(=O)[C@H](C)N(C)C1=O [Compound 1106] ([NMeL]I[NMeA][Aze][NMeCha][Sar][hPhe(3-Cl-4-CF3)]P[Ac5c]V[NMeD]-Piperidide; lactam N-11) | > 500 |
| CC[C@H](C)[C@@H]1NC(=O)[C@H](CC(C)C)N(C)C(=O)C[C@@H](C)NC(=O)[C@H](C(C)C)N(C)C(=O)C2(CCCC2)NC(=O)[C@@H]2CCCN2C(=O)[C@H](CCc2ccc(C(F)(F)F)c(Cl)c2)NC(=O)CN(C)C(=O)[C@H](Cc2ccccc2C#N)N(C)C(=O)CN(C)C(=O)CN(C)C1=O [Compound 767] (cyclo([Ac5c][NMeV][d(β3hA)][NMeL]I[Sar][Sar][NMePhe(2-CN)][Sar][hPhe(3-Cl-4-CF3)]P)) | > 500 |
